Data on two molecules can be found in US20200023072A1, “ANTIBODY-DRUG CONJUGATES WITH IMMUNE-MEDIATED THERAPY AGENTS” (MEDIMMUNE LIMITED, priority 2016, published 2020).

For this assay, the system named is CT26 mouse colon cancer cells. Briefly: In vivo vaccination/challenge mouse model with payload-treated CT26 cells. The settings on record: CT26 cells treated 24 hours with tubulysin (1 uM) or PBD (10 nM), implanted in left flank of BALB/c mice; challenge with untreated CT26 cells in opposite flank 1 week later; assessed on day 65. The method, then: CT26 cells were treated with either […] AZD9185 (tubulysin) or […] SG3199 (PBD) for 24 hours so that the cells were committed to cell death (as assessed by lack of growth in re-plating experiments) but still >95% viable. Five-hundred thousand of these treated cells were inoculated into the left flank of BALB/c mice to test for their ability to vaccinate for subsequent right flank challenge. Controls included cells treated with 75 Gy radiation or taken through 3 freeze-thaw cycles (necrotic). Challenge on the right flank utilized 3×10^6 untreated CT26 cells 7 days later.
In order to test this, tubulysin and PBD were used in a vaccination/challenge mouse model. CT26 mouse colon cancer cells were treated with either tubulysin (1 uM) or PBD (10 nM) for a period of 24 hours (FIG. 1A). At this point in time, the cells were still viable but committed subsequent cell death.
These dying but not yet dead cells were implanted subcutaneously into the left flank of BALB/c mice to test if they could vaccinate against subsequent challenge with a tumor forming dose of untreated CT26 cells in the opposite flank 1 week later. Irradiated cells were included as a positive control and necrotic cells which were taken through a freeze thaw cycle were included as a negative control.

SMILES strings stand for the structures.

Turning to `COc1cc2c(cc1OCCCCCOc1cc3c(cc1OC)C(=O)N1C=C(C)C[C@H]1C=N3)N=C[C@@H]1CC(C)=CN1C2=O` [PBD], the “mice protected from tumor formation” value was 70%. To `CC[C@H](C)[C@H](NC(=O)[C@H]1CCCCN1C)C(=O)N(COC(=O)CC(C)C)[C@H](C[C@@H](OC(C)=O)c1nc(C(=O)N[C@@H](Cc2ccc(C)cc2)C[C@H](C)C(=O)O)cs1)C(C)C` [Tubulysin] belongs 40%.
